According to patent publication US20240246905A1 (University of Leicester, priority 2021, published 2024):
In brackets after ≈: the same amount, converted by molar mass.

Legend:
red blood cells = assay: Hemolysis assay (CO-ADD); format: cell-based; settings: 32 μg/mL highest concentration tested
Excerpt: A problem often encountered by emerging drugs is hemolysis, also known as drug-induced immune hemolytic anemia.

[1] = tested on: various Staphylococcus aureus strains; assay: Disc diffusion, Staphylococcus aureus strain study; format: cell-based; settings: Staphylococcus aureus, 500 μg/mL
Excerpt: At this point in the study it was decided to perform a disc diffusion assay study on 50 S. aureus strains. […] Moreover, by employing a range of mutant strains of S. aureus with specific gene-deletions, it was believed that if particular strains were resistant to the lead compounds, it could provide insights on the likely protein target of the lead antibiotics. However, all six of the compounds utilized in this study were able to inhibit growth of all 50 strains of S. aureus assayed at the chosen concentration of 500 μg/mL concentration (Table 5).
(§1) E. coli DH5α, P. aeruginosa PA01 and the 53 S. aureus strains were recovered from frozen (−80° C.) glycerol (15% v/v) stocks on Lysogeny agar (LA)—Gram negative and trypticase soy agar (TSA)—plates at 37° C. for 24 hours. Single colonies were placed in either 3 mL Lysogeny broth (LB)—Gram negative or trypticase soy broth (TSB)—Gram positive and incubated at 37° C., 250 rpm for 18 hours.
(§2) The antibiotic activity was determined using a Kirby-Bauer method according to Clinical Standard Laboratory Institute (CSLI) Guidelines (2017). Briefly, 180 μL of a 1 in 200 dilution (in LB or TSB) of overnight cultures of selected Gram negative and Gram positive bacteria were applied to an agar plate containing the solid growth medium, Mueller-Hinton agar (MHA). Sterile discs, inoculated with 50 μL of antibiotic, were first added to the agar plate before the plates were incubated for 24 hours at 37° C. Following incubation, the zone of inhibition (if it existed) was recorded.

HEK293 cells = assay: Cytotoxicity assay, resazurin (CO-ADD)
Method: The cytotoxicity studies were performed by CO-ADD (The Community for Open Antimicrobial Drug Discovery), funded by the Wellcome trust (UK) and the University of Queensland, Australia.^(28) In this study, the compounds were screened against a human embryonic kidney cell line, HEK293, at a set concentration of 32 μg/mL.
DMEM supplemented with 10% FBS was used as growth media and the cells were incubated together with the compounds for 20 hours at 37° C. in 5% CO2.
Cytotoxicity (or cell viability) was measured by fluorescence, excitation: 560/10 nm, emission: 590/10 nm (F560/590), after addition of 5 μL of 25 μg/mL Resazurin (2.3 μg/mL final concentration) and after incubation for further 3 h at 37° C. in 5% CO2. The fluorescence intensity was measured using a Tecan M1000 Pro monochromator plate reader, using automatic gain calculation CC50 (concentration at 50% cytotoxicity) were calculated by curve fitting the inhibition values vs. log(concentration) using sigmoidal dose-response function, with variable fitting values for bottom, top and slope. The curve fitting was implemented using Pipeline Pilot's dose-response component.

MSSA 476 [2] = assay: Disc diffusion (Kirby-Bauer), zone of inhibition; format: cell-based, Staphylococcus aureus; settings: Staphylococcus aureus, 500 μg/mL, '/' = no zone, read-out: Zone of inhibition
Method: as §1, §2

MRSA 252 [3] = assay: Disc diffusion (Kirby-Bauer), zone of inhibition; format: cell-based, Staphylococcus aureus; settings: Staphylococcus aureus, 500 μg/mL, '/' = no zone, read-out: Zone of inhibition
Method: as §1, §2

MSSA 476 [4] = assay: MIC, broth micro-dilution; format: cell-based, Staphylococcus aureus; settings: Staphylococcus aureus, MSSA, read-out: MIC
Method: as §1
(§3) Antibiotic MIC's were determined by a broth micro-dilution method according to Clinical Standard Laboratory Institute (CSLI) Guidelines (2017). Briefly, 96-well microplates, each containing 195 μL of the 1:2 dilution antibiotic in TSB, were inoculated with 5 μL of overnight cultured bacteria, diluted to give a starting bacterial concentration of 5×10^5 CFU/mL. The optical density of each well inoculated was recorded every 12 minutes over an 18 hour period at 37° C. The data from this was plotted in OriginPro8 (OriginLab) and sigmoidal curves fitted using the dose response function. Fitted values for each curve were used to calculate the MIC.

MRSA 252 [5] = assay: MIC, broth micro-dilution; format: cell-based, Staphylococcus aureus; settings: Staphylococcus aureus, read-out: MIC
Method: as §1, §3

[6] = tested on: Staphylococcus aureus 15981; assay: Disc diffusion (Kirby-Bauer), zone of inhibition; format: cell-based; settings: Staphylococcus aureus 15981; 500 μg/mL; '/' = no zone; read-out: Zone of inhibition
Method: as §1, §2

[C-]#[N+]C=Cc1cc(Br)ccc1O [Compound 13]
Hemolytic activity (HC10) (red blood cells): >32 µg/mL | zone of inhibition at 500 µg/mL ([1]; strain ASARM 61): 20 mm | zone of inhibition at 500 µg/mL ([1]; strain ASARM 70): 20 mm | zone of inhibition at 500 µg/mL ([1]; strain ASARM 71): 20 mm | zone of inhibition at 500 µg/mL ([1]; strain ASARM 72): 16 mm | zone of inhibition at 500 µg/mL ([1]; strain ASARM 73): 20 mm | zone of inhibition at 500 µg/mL ([1]; strain ASARM 75): 20 mm | zone of inhibition at 500 µg/mL ([1]; strain ASARM 76): 20 mm | zone of inhibition at 500 µg/mL ([1]; strain ASARM 77): 20 mm | zone of inhibition at 500 µg/mL ([1]; strain ASARM 79): 20 mm | zone of inhibition at 500 µg/mL ([1]; strain ASARM 80): 18 mm | zone of inhibition at 500 µg/mL ([1]; strain EOE 3): 24 mm | zone of inhibition at 500 µg/mL ([1]; strain EOE 23): 22 mm | zone of inhibition at 500 µg/mL ([1]; strain EOE 30): 22 mm | zone of inhibition at 500 µg/mL ([1]; strain EOE 35): 22 mm | zone of inhibition at 500 µg/mL ([1]; strain EOE 41): 20 mm | zone of inhibition at 500 µg/mL ([1]; strain EOE 42): 20 mm | zone of inhibition at 500 µg/mL ([1]; strain EOE 45): 24 mm | zone of inhibition at 500 µg/mL ([1]; strain EOE 52): 22 mm | zone of inhibition at 500 µg/mL ([1]; strain EOE 54): 22 mm | zone of inhibition at 500 µg/mL ([1]; strain EOE 57): 25 mm | zone of inhibition at 500 µg/mL ([1]; strain S139_7_7): 24 mm | zone of inhibition at 500 µg/mL ([1]; strain S197_1_1): 26 mm | zone of inhibition at 500 µg/mL ([1]; strain S197_1_8): 20 mm | zone of inhibition at 500 µg/mL ([1]; strain S197_1_9): 20 mm | zone of inhibition at 500 µg/mL ([1]; strain S197_1_10): 20 mm | zone of inhibition at 500 µg/mL ([1]; strain S295_1_1): 22 mm | zone of inhibition at 500 µg/mL ([1]; strain S295_1_2): 20 mm | zone of inhibition at 500 µg/mL ([1]; strain S295_1_3): 20 mm | zone of inhibition at 500 µg/mL ([1]; strain S364_5_11): 20 mm | zone of inhibition at 500 µg/mL ([1]; strain S364_5_12): 25 mm | zone of inhibition at 500 µg/mL ([1]; strain Sa_TPS 3026): 20 mm | zone of inhibition at 500 µg/mL ([1]; strain Sa_TPS 3072): 21 mm | zone of inhibition at 500 µg/mL ([1]; strain Sa_TPS 3092): 20 mm | zone of inhibition at 500 µg/mL ([1]; strain Sa_TPS 3097): 20 mm | zone of inhibition at 500 µg/mL ([1]; strain Sa_TPS 3103): 20 mm | zone of inhibition at 500 µg/mL ([1]; strain Sa_TPS 3104): 22 mm | zone of inhibition at 500 µg/mL ([1]; strain Sa_TPS 3106): 16 mm | zone of inhibition at 500 µg/mL ([1]; strain Sa_TPS 3118): 22 mm | zone of inhibition at 500 µg/mL ([1]; strain Sa_TPS 3133): 20 mm | zone of inhibition at 500 µg/mL ([1]; strain Sa_TPS 3134): 18 mm | zone of inhibition at 500 µg/mL ([1]; strain USFL 008): 18 mm | zone of inhibition at 500 µg/mL ([1]; strain USFL 009): 22 mm | zone of inhibition at 500 µg/mL ([1]; strain USFL 012): 22 mm | zone of inhibition at 500 µg/mL ([1]; strain USFL 016): 20 mm | zone of inhibition at 500 µg/mL ([1]; strain USFL 018): 20 mm | zone of inhibition at 500 µg/mL ([1]; strain USFL 020): 20 mm | zone of inhibition at 500 µg/mL ([1]; strain USFL 021): 22 mm | zone of inhibition at 500 µg/mL ([1]; strain USFL 028): 22 mm | zone of inhibition at 500 µg/mL ([1]; strain USFL 035): 22 mm | zone of inhibition at 500 µg/mL ([1]; strain USFL 054): 22 mm | Concentration toxic to HEK 293 cells (HEK293 cells; HEK 293): >32000 ng/mL | toxicity towards the HEK293 cell line (in words) (HEK293 cells; set concentration of 32 μg/mL): no toxicity | zone of inhibition at 500 µg/mL (MSSA 476 [2]): 22 mm | zone of inhibition at 500 µg/mL (MRSA 252 [3]): 22 mm | MIC (MSSA 476 [4]): 145 µg/mL (≈ 647 µM) | MIC (MRSA 252 [5]): 35 µg/mL (≈ 156 µM) | zone of inhibition at 500 µg/mL [6]: 18 mm
